Data published in patent US10150728B2, “Alkylene derivatives” (Shionogi & Co., Ltd., priority 2013, dated 2018).

target: recombinant human ACC2 (Homo sapiens (Human), UniProt O00763); assay: Measurement of inhibitory activity on human ACC2 (MALDI-TOF MS, acetyl CoA to malonyl CoA conversion); format: biochemical; conditions: Table 154
In short: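 His-tagged human ACC2 (residues 27–2458) from baculovirus-infected Sf-9 cells was preincubated 1 h in pH 7.4 HEPES-KOH buffer with MgCl2, 6-10 mM potassium citrate, glutathione and BSA. Substrate solution held 1 mM ATP, 0.8 mM acetyl CoA and 25-50 mM bicarbonate. After 1–3 h at room temperature, malonyl CoA/(malonyl+acetyl CoA) was read by negative-mode MALDI-TOF MS; citrate, bicarbonate and time varied by enzyme lot.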

recombinant human ACC2, sequence (O00763 27-2458): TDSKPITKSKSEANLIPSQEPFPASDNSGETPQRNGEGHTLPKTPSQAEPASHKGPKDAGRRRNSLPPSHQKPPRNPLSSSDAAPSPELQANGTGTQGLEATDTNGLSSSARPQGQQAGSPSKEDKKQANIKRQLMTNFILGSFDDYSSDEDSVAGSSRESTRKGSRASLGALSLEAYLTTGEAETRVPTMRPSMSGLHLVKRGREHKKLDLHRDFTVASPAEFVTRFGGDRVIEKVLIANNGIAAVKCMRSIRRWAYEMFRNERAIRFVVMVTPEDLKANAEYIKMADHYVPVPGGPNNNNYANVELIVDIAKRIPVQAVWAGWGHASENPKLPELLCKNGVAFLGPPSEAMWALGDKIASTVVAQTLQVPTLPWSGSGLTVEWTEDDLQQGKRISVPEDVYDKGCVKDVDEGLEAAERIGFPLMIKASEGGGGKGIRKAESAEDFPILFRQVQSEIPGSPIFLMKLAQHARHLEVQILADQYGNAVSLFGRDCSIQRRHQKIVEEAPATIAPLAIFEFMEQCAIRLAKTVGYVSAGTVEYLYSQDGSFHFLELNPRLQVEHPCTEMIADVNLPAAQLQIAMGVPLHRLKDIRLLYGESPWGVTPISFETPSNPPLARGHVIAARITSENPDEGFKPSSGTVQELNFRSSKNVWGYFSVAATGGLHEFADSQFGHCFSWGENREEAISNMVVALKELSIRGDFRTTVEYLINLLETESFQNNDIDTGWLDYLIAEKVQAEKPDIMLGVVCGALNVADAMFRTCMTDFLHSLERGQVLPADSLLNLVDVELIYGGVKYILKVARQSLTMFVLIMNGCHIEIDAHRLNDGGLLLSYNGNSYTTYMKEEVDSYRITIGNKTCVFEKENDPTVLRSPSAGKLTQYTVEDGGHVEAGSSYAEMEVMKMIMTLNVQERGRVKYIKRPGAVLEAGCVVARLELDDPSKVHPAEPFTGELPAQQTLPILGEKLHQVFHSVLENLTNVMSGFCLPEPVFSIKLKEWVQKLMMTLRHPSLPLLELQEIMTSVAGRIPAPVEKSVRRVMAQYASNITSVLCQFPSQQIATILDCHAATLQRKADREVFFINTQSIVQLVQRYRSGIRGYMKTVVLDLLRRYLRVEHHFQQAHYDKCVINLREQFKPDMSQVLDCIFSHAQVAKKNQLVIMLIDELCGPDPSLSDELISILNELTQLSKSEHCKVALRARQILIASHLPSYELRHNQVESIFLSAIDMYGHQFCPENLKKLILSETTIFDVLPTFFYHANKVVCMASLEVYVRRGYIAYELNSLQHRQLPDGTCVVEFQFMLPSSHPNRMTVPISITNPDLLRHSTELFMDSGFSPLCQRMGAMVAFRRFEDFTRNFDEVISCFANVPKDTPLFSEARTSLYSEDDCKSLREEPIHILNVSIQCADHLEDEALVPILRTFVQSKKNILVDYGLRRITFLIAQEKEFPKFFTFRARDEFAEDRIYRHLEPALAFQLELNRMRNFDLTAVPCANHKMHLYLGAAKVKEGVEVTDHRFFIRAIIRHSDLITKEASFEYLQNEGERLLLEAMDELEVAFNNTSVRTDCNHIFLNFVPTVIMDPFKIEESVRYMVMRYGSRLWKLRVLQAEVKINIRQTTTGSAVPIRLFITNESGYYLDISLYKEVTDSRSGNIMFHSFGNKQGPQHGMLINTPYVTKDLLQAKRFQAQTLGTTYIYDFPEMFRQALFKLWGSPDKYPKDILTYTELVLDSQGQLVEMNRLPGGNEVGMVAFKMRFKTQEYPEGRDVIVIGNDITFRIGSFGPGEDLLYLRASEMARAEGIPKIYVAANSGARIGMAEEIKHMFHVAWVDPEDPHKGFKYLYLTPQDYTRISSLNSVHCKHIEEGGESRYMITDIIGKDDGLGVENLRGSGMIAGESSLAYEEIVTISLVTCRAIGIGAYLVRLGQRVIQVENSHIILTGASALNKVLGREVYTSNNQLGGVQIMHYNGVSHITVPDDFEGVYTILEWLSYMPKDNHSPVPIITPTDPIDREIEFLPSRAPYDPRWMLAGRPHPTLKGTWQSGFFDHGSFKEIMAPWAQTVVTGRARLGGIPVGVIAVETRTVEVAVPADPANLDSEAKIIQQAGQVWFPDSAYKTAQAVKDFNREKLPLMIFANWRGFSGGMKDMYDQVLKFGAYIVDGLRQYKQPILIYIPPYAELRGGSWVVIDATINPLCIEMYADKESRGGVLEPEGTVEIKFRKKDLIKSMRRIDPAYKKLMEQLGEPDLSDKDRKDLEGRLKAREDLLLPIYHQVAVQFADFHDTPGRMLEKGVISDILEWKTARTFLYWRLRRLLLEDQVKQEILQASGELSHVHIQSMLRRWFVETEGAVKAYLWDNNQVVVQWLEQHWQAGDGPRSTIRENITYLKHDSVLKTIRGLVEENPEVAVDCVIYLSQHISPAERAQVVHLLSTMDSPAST

Which IC50 does the source give for CC(=O)N[C@@H](C)[C@H](C)Oc1cnc(Oc2ccc3nc(C(C)C)sc3c2F)cn1 [Compound I-048] here?
The IC50 was 0.083 µM.

How did the IC50 turn out when CCOc1nc2ccc(Oc3cnc(OC[C@H](C)NC(=O)CO)cn3)c(Cl)c2s1 [Compound I-071] was run?
Its IC50 is 0.054 µM.

same assay, conditions: Tables 155-159

Which IC50 does the source give for CCOc1nc2ccc(O[C@H]3CC[C@H](OC[C@H](CC)NC(C)=O)CC3)c(F)c2s1 [Compound I-232] here?
Its IC50 is 0.021 µM.

With CCOc1nc2ccc(O[C@H]3CC[C@H](OC[C@H](C)NC(C)=O)CC3)nc2n1C [Compound I-491] as the compound, how does the IC50 read?
The IC50 was 0.051 µM.

For CC(=O)N[C@@H](C)CO[C@H]1CC[C@H](Oc2nc3ccc(SCC(C)C)cc3n2C)CC1 [Compound I-578], which IC50 is on record?
Its IC50 is 0.11 µM.

With CC(=O)N[C@@H](C)CC[C@H]1CC[C@H](Oc2ncc(-c3ncc(Cl)cn3)cc2F)CC1 [Compound I-544] as the compound, how does the IC50 read?
Its IC50 is 0.004 µM.

With CC(=O)N[C@@H](C)CO[C@H]1CC[C@H](Oc2nc3cnc(OCC4CC4)c(F)c3n2C)CC1 [Compound I-625] as the compound, how does the IC50 read?
Its IC50 is 0.005 µM.

CC(=O)N[C@@H](C)CO[C@H]1C[C@H](COc2ncnc3c2c(F)cn3CC2CC2(F)F)C1 (stereo partly shown) [Compound I-440] was tested. Which IC50 did it give?
Its IC50 is 0.019 µM.

With CC(=O)N[C@@H](C)[C@H](C)O[C@H]1CC[C@H](Oc2nc3cnc(OCC(F)F)c(Cl)c3n2C)CC1 [Compound I-675] as the compound, how does the IC50 read?
The IC50 was 0.018 µM.

For CC(=O)N[C@@H](C)CO[C@H]1CC[C@H](Oc2ncc(-c3ncc(C)cn3)cc2F)CC1 [Compound I-534], which IC50 is on record?
The IC50 was 0.067 µM.

How did the IC50 turn out when CC(=O)N[C@@H](C)CO[C@H]1CC[C@H](Oc2nc3c(Br)cc(OCc4ccccc4)cc3n2C)CC1 [Compound I-738] was run?
The IC50 was 0.035 µM.

For CC(=O)N[C@@H](C)CO[C@H]1C[C@H](COc2ccc3nc(OCC4(C)CC4)sc3n2)C1 [Compound I-198], which IC50 is on record?
The IC50 was 0.005 µM.

CC(=O)N[C@@H](C)CO[C@H]1CC[C@H](Oc2ccc3nc(OCC(F)(F)F)n(C)c3n2)CC1 [Compound I-498] was tested. Which IC50 did it give?
The IC50 was 0.013 µM.

For CCC(O)(CC)c1nc2ccc(O[C@H]3CC[C@H](OC[C@H](C)NC(C)=O)CC3)c(F)c2s1 [Compound I-145], which IC50 is on record?
The IC50 was 0.19 µM.

Which IC50 does the source give for CC(=O)N[C@@H](C)CO[C@H]1CC[C@H](Oc2nc3ccc(Oc4ccc(F)cc4)cc3n2C)CC1 [Compound I-596] here?
The IC50 was 0.01 µM.

With CC(=O)N[C@@H](C)CO[C@H]1C[C@H](COc2ccc3nc(N4CCC(F)(F)CC4)sc3n2)C1 [Compound I-227] as the compound, how does the IC50 read?
Its IC50 is 0.036 µM.

How did the IC50 turn out when CC(=O)N[C@@H](C)CO[C@H]1CC[C@H](Oc2cc3sc(OCc4ccc(F)cc4)nc3cn2)CC1 [Compound I-221] was run?
The IC50 was 0.172 µM.

Which IC50 does the source give for CC(=O)N[C@@H](C)CO[C@H]1C[C@H](COc2nccc3c2cnn3Cc2ccccc2)C1 [Compound I-387] here?
Its IC50 is 0.392 µM.

How did the IC50 turn out when CC(=O)N[C@@H](C)CO[C@H]1CC[C@H](Oc2nc3c(cc2F)nc(OC2CC(F)(F)C2)n3C)CC1 [Compound I-518] was run?
The IC50 was 0.013 µM.

With CC(=O)N[C@@H](C)CO[C@H]1CC[C@H](Oc2ccc3nc(N4CC(F)(F)C4)sc3c2F)CC1 [Compound I-175] as the compound, how does the IC50 read?
The IC50 was 0.011 µM.

CC(=O)N[C@@H](C)CO[C@H]1C[C@H](COc2ccc3nc(C(C)(F)F)sc3c2Cl)C1 [Compound I-108] was tested. Which IC50 did it give?
Its IC50 is 0.792 µM.

CC(=O)N[C@@H](C)CO[C@H]1C[C@H](COc2ncnc(-c3nc4ccccc4o3)c2Cl)C1 [Compound I-462] was tested. Which IC50 did it give?
Its IC50 is 0.09 µM.

For CC(=O)N[C@@H](C)CO[C@H]1C[C@H](COc2ccc3nc(OCC(F)F)n(C)c3n2)C1 [Compound I-484], which IC50 is on record?
The IC50 was 0.204 µM.

With CC(=O)N[C@@H](C)CO[C@H]1CC[C@H](Oc2nc3cnc(OC4CC4)c(F)c3n2C)CC1 [Compound I-667] as the compound, how does the IC50 read?
Its IC50 is 0.008 µM.

Which IC50 does the source give for CC(=O)N[C@@H](C)CO[C@H]1C[C@H](COc2ncnc(OCc3ccccn3)c2Cl)C1 [Compound I-435] here?
The IC50 was 0.007 µM.

Which IC50 does the source give for CC(=O)N[C@@H](C)C(F)(F)C[C@@H]1CC[C@@H](Oc2nc3c(F)cc(OCC(F)F)c(F)c3n2C)CO1 [Compound I-643] here?
Its IC50 is 0.25 µM.

How did the IC50 turn out when CCOc1ccc2nc(O[C@H]3CC[C@H](OC[C@H](C)NC(C)=O)CC3)n(C)c2c1Br [Compound I-605] was run?
The IC50 was 0.013 µM.

How did the IC50 turn out when CC(=O)N[C@@H](C)CC[C@H]1CC[C@H](Oc2nc3cnc(OCC(F)F)c(Cl)c3n2C)CO1 [Compound I-657] was run?
The IC50 was 0.014 µM.
